The structures appear in SMILES notation. Like-named read-outs stand apart in the source and are kept apart here.

One data set concerns the target T1, human mGluR5a receptor (Homo sapiens, UniProt P41594).
T1 construct: cDNA subcloned into pcDNA3.1(-)
Kind of data set: Cell-based functional Ca2+ mobilization assay (FDSS), potentiation of glutamate EC20 response. The settings on record: for EC50: HEK cells transfected with human mGluR5 (H10H or H12H), in presence of EC20 glutamate; for Emax: maximum % effect in concentration-response curve, as percent of response to maximally effective glutamate. An outline of the steps:
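HEK293A cells stably expressing human mGluR5a (H10H or H12H clones), plated overnight in glutamate-glutamine-free medium, loaded with Ca2+-sensitive dye (e.g. Fluo-4) and read on FDSS.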
For orientation: Calcium flux is commonly read through the fluorescence of an indicator in the cells.

T1 sequence (P41594 21-1180 isoform P41594-2 limits assumed): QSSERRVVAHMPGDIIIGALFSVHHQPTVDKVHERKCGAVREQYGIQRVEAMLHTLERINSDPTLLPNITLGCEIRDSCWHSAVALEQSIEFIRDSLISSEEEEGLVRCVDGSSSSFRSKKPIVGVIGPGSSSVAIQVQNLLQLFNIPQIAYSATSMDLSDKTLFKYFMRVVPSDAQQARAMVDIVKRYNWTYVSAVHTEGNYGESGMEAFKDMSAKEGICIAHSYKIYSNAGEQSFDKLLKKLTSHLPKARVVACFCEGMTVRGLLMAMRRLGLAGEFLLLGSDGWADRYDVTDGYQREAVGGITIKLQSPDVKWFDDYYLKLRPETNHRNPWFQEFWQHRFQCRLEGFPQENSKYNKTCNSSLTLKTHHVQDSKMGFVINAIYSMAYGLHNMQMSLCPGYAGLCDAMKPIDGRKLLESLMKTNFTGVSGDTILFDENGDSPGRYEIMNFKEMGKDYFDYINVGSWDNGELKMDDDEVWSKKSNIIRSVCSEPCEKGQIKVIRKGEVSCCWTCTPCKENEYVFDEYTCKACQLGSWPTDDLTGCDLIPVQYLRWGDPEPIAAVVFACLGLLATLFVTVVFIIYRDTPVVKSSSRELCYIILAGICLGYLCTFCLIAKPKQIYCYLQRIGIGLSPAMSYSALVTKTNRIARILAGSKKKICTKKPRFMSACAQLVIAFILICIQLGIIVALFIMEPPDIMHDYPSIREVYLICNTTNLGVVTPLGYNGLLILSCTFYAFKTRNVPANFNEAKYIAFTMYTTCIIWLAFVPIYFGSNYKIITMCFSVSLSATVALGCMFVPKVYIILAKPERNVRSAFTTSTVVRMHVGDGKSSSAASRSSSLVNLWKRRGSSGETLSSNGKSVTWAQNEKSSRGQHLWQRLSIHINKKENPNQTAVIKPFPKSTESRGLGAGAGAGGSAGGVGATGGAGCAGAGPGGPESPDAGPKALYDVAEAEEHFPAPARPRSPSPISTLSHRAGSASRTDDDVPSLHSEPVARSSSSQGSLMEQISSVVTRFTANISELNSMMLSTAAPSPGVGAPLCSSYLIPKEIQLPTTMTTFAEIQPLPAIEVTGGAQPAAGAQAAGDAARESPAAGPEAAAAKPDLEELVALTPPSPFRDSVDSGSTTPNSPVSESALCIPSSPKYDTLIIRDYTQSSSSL

In the case of `COc1nc(N2C(=O)c3cc(COc4ccccc4)nn3C[C@H]2C)ncc1C` [Example 156], the melting point (commonly the temperature of the solid-liquid transition) was greater than 300 °C. For the same molecule, on human mGluR5a receptor (read-out: EC50), the EC50 came out at 540 nM. In addition, the Emax (commonly the maximal effect, on the per cent scale that the assay sets) at human mGluR5a receptor was 79%.
In turn, `COc1ccc(N2CCn3nc(COc4ccccc4)cc3C2=O)c(C)n1` [Example 114] registered a melting point of 136.3 °C. The EC50 at human mGluR5a receptor (read-out: EC50) worked out at 100 nM. Also, the maximum response (Emax) on human mGluR5a receptor turned out to be 68%.
For `Cc1ccc(N2CCn3nc(COc4ccccc4)cc3C2=O)s1` [Example 319], the melting point came to 194.5 °C. The EC50 at human mGluR5a receptor (read-out: pEC50 (converted)) is 28.8 nM. The Emax on human mGluR5a receptor stood at 68%.
For the molecule `O=C1c2cc(COc3ccccc3)nn2CCN1c1ccc(F)c(F)c1` [Example 7], the melting point was greater than 300 °C. In addition, the EC50 at human mGluR5a receptor (read-out: EC50) worked out at 98 nM. In addition, the Emax at human mGluR5a receptor was 80%.
In the same order, the values of `Cc1cnc(C)c(N2CCn3nc(COc4ccccc4)cc3C2=O)n1` [Example 120] are 141.7 °C, 750 nM and 67%.
On to `COc1nc(N2CCn3nc(COc4ccc(F)cc4)cc3C2=O)ncc1F` [Example 318], for which the melting point was greater than 300 °C. Moreover, the EC50 at human mGluR5a receptor (read-out: EC50) amounted to 240 nM. In addition, the Emax on human mGluR5a receptor amounted to 72%.
In the same order, the values of `Cc1ccc(N2CCn3nc(COc4ccccc4)cc3C2=O)nn1` [Example 84] are 166.7 °C, greater than 10000 nM and 53%.
The corresponding values for `Cc1nc(N2CCn3nc(COc4ccccc4)cc3C2=O)ncc1F` [Example 90] are 177.1 °C, 575 nM and 67%.
As to `O=C1c2cc(COc3ncccn3)nn2CCN1c1ccc(F)cc1` [Example 194], the melting point turned out to be 179.5 °C. Also, the EC50 on human mGluR5a receptor (read-out: EC50) is greater than 10000 nM. Besides, at human mGluR5a receptor, the Emax was 50%.
The corresponding values for `O=C1c2cc(COc3cncc(F)c3)nn2CCN1CC1CC1` [Example 171] are 110.7 °C, greater than 10000 nM and 51%.
In the same order, the values of `O=C1c2cc(COc3ncccc3F)nn2CCN1c1ccc(F)cc1` [Example 187] are 165 °C, 2190 nM and 60%.
`CN(C)c1cccc(N2CCn3nc(COc4cccc(F)c4)cc3C2=O)n1` [Example 316] came in with a melting point of 121.2 °C. Further, the EC50 on human mGluR5a receptor (read-out: pEC50 (converted)) was 40.7 nM. Besides, the Emax at human mGluR5a receptor worked out at 74%.
Molecule `COc1cccc(N2CCn3nc(COc4ccc(F)cc4)cc3C2=O)c1` [Example 220] registered a melting point of 130.4 °C. Besides, on human mGluR5a receptor (read-out: EC50), the EC50 turned out to be 350 nM. For the same molecule, at human mGluR5a receptor (read-out: pEC50 (converted)), the EC50 is 355 nM. Moreover, the Emax on human mGluR5a receptor came out at 63%.
For the molecule `COc1cnc(N2CCn3nc(COc4ccccc4)cc3C2=O)nc1` [Example 353], the melting point was 266.9 °C. For the same molecule, the EC50 on human mGluR5a receptor (read-out: EC50) was 280 nM. For the same molecule, the Emax at human mGluR5a receptor was determined as 61%.
The molecule `Cc1ccc(N2CCn3nc(COc4ccccc4)cc3C2=O)cn1` [Example 23] gave a melting point greater than 300 °C. Moreover, the EC50 on human mGluR5a receptor (read-out: EC50) was found to be 1200 nM. Also, the Emax on human mGluR5a receptor amounted to 81%.
In the same order, the values of `CN(C)c1cncc(N2CCn3nc(COc4ccccc4)cc3C2=O)n1` [Example 280] are 215.1 °C, 355 nM and 70%.
In the same order, the values of `O=C1c2cc(COc3ccccc3)nn2CCN1CC1CCC1` [Example 27] are greater than 300 °C, 92 nM and 80%.
The molecule `Cc1cccc(OCc2cc3n(n2)CCN(c2ccc(F)cc2)C3=O)c1` [Example 166] came in with a melting point of 182.5 °C. In addition, the EC50 on human mGluR5a receptor (read-out: EC50) came out at 95 nM. Besides, the Emax at human mGluR5a receptor worked out at 64%.
The corresponding values for `Cn1cnc(N2CCn3nc(COc4ccccc4)cc3C2=O)c1` [Example 321] are 203.7 °C, greater than 30200 nM and 23%.
In the same order, the values of `C[C@@H]1Cn2nc(COc3ccccc3)cc2C(=O)N1c1ccc(F)cn1` [Example 141] are 71.9 °C, 195 nM and 66%.
In the same order, the values of `N#Cc1cccc(OCc2cc3n(n2)CCN(c2ccc(F)cn2)C3=O)c1` [Example 233] are 181.3 °C, 525 nM and 54%.
In the case of `Cc1cnc(N2CCn3nc(COc4ccccc4)cc3C2=O)cn1` [Example 100], the melting point amounted to 235.5 °C. Also, the EC50 on human mGluR5a receptor (read-out: EC50) came to 955 nM. For the same molecule, the Emax at human mGluR5a receptor stood at 67%.
The corresponding values for `COc1cc(N2CCn3nc(COc4ccccn4)cc3C2=O)ccc1F` [Example 204] are 143.9 °C, 407 nM and 69%.
The corresponding values for `CC1CN(c2ccc(F)cc2)C(=O)c2cc(COc3ccc(F)cc3)nn21` (racemic) [Example 234] are 164.2 °C, 141 nM and 69%.
The corresponding values for `Cc1nc(N2CC(C)n3nc(COc4ccc(F)cc4)cc3C2=O)ccc1F` (racemic) [Example 236] are 123.5 °C, 151 nM and 64%.
The molecule `CC(C)N1CCn2nc(COc3ccccc3)cc2C1=O` [Example 25] displayed a melting point greater than 300 °C. The EC50 at human mGluR5a receptor (read-out: EC50) amounted to 1860 nM. Further, the Emax at human mGluR5a receptor was found to be 53%.
The corresponding values for `COc1cnc(N2CCn3nc(COc4ccccc4)cc3C2=O)nc1OC` [Example 107] are 169.6 °C, 347 nM and 63%.
The corresponding values for `Cc1cnccc1OCc1cc2n(n1)CCN(c1ccc(F)cc1)C2=O` [Example 189] are 168.3 °C, 4900 nM and 45%.
Molecule `O=C1c2cc(COc3ccccc3)nn2CCN1c1ncc(F)cn1` [Example 126] gave a melting point of 161.3 °C. For the same molecule, the EC50 on human mGluR5a receptor (EC50 (nM)) is 780 nM. Besides, the Emax at human mGluR5a receptor stood at 71%.
`O=C1c2cc(COc3ccccc3)nn2CCN1c1ncccc1Cl` [Example 68] registered a melting point of 127.5 °C. Also, the EC50 at human mGluR5a receptor (read-out: EC50) came out at 324 nM. Also, the Emax at human mGluR5a receptor was 68%.
The molecule `Cc1cccc(N2CCn3nc(COc4ccccc4)cc3C2=O)n1` [Example 10] came in with a melting point of 129.7 °C. Also, on human mGluR5a receptor (read-out: EC50), the EC50 turned out to be 162 nM. The Emax at human mGluR5a receptor was 84%.
The corresponding values for `COc1nc(N2CCn3nc(COc4ccccc4)cc3C2=O)cnc1C` [Example 102] are 158.1 °C, 120 nM and 69%.
The corresponding values for `Cc1ccc(N2CCn3nc(COc4ccccc4)cc3C2=O)c(C)n1` [Example 116] are greater than 300 °C, 310 nM and 62%.
Take `Cc1cncc(N2CCn3nc(COc4ccccc4)cc3C2=O)c1` [Example 22]: the melting point was 155.3 °C. For the same molecule, at human mGluR5a receptor (read-out: EC50), the EC50 amounted to 1200 nM. Further, the maximal response (Emax) on human mGluR5a receptor was 74%.
In the same order, the values of `O=C1c2cc(COc3ccccc3)nn2CCN1c1cncnc1` [Example 31] are 240 °C, greater than 10000 nM and 58%.
